{"source": "patent US5565433A", "about": "“Sulfated β-glycolipid derivatives as cell adhesion inhibitors” (Bristol-Myers Squibb Company, priority 1996, dated 1996)", "key": {"[1]": {"system": "Reverse Passive Arthus Reaction in Rats", "assay": "Reverse Passive Arthus Reaction in Rats, vascular permeability (VP)", "assay_type": "in vivo", "conditions": "rat, IV, % inhibition at 3 mg single dose, 4 hours", "description": "(§1) 3. Reverse Passive Arthus Reaction in Rats\n(§2) The reverse passive Arthus reaction in rats is a modification of the method by Mulligan et al., as described in J. Clin. Invest., (1991 ) 88:1396-1406. This is an experimental model in which the interaction of antigen-antibody complexes and complement leads to a severe vasculitis that is associated with edema, induration, erythema and hemorrhage. The interaction between the antigen-antibody complexes and complement leads to a localized influx of neutrophils. These neutrophils release a variety of mediators that are associated with tissue damage and vascular permeability. The localized inflammatory reaction is measured using different techniques i.e., vascular permeability and neutrophil influx which is evaluated both biochemically and microscopically.\n(§3) Male Sprague Dawley specific pathogen-free rats with jugular vein cannulae (280-320 g, Hill Top Labs, Pa.) are used in these studies. Animals are acclimated for at least 1 day and individually housed in stainless steel cages. The dorsal region of the rats is closely clipped 2 days prior to the experiments and divided into 4 sites on each side of the midline. Prior to all injections the rats are sedated with 0.4 ml per 300 gm rat of ketamine/rompun [1000 mg (10 ml) of ketamine HCL is mixed with 40 mg (2.0 ml) Rompun] administered IP and or inhalation anesthesia with metafane (methoxyflurane).\n(§4) Bovin Serum Albumin (BSA) and rabbit polyclonal IgG rich in anti-BSA are purchased from Sigma Chemical Co. (St. Louis, Mo.). Radiolabelled ^125 I-BSA (spAct 1-5 μCi/μg) is purchased from Dupont NEN (Boston, Mass.).\n(§5) Each rat is administered intradermal (ID) injection of (0.4 mg, 0.6 mg and 0.8 mg) anti-BSA in a volume of 100 μl per injection in normal saline. The ID injections are randomized near the mid dorsal region on both sides of the back bone. Immediately after the ID injections of the anti-BSA, the rats are administered intravenous (IV) injections of BSA (10 mg in 1.0 ml) in normal saline containing ^125 I labeled BSA (1 μCi/ml BSA or 5.0 μCi/kg body wt) for quantification of dermal vascular injury. Anti-inflammatory agents such as inhibitors of adhesion molecules of the present invention are administered IV at a single dose of 3 mg immediately after BSA. Four (4) hours after the IV injection of BSA, the rats are anesthetized with metafane and 2 to 3 ml of blood is withdrawn via the cannula into an anticoagulant containing (EDTA or Heparin) tube and plasma separated and saved for neutrophil and albumin quantitation. The rats are killed and the skin surrounding the injection site (15 mm diameter) is punched out and weighed. The skin samples and a fixed volume of plasma (0.1 to 1.0 ml) is analyzed in a gamma-counter for ^125 I content. Skin samples from the contralateral side are processed and analyzed for myeloperoxidase activity (MPO) as a measure of neutrophil accumulation. As needed, samples are also processed for histological evaluation of the reacted sites.\nVascular Permeability (VP)\nThe calculation of the plasma protein exudation into skin is made by determining the radioactivity in the tissue and relating this to the level of radioactive albumin in the blood at the time of sacrifice. […] [formula]\nPercent inhibition of the test compound at 3 mg was determined as follows: [formula] Myeloperoxidase (MPO)"}, "[2]": {"system": "Reverse Passive Arthus Reaction in Rats", "assay": "Reverse Passive Arthus Reaction in Rats, myeloperoxidase (MPO)", "assay_type": "in vivo", "conditions": "rat, IV, % inhibition at 3 mg single dose, 4 hours", "description": "as §1, §2, §3, §4, §5\nMPO is located in the azurephil granules of polymorphonuclear leukocytes (PMN). Because of its abundance in these cells (5% dry weight), this enzyme is used as a marker for tissue neutrophil content. For tissue MPO content, the method of Bradley, et al., was used as described in J. Invest. […] Change in absorbance at 450 nm was measured at room temperature using a Vmax kinetic plate reader (Molecular Devices, Pale Alto, Calif., USA). Percent inhibition of the test compound at 3 mg dose was determined as follows: [formula] […]"}}, "data": [{"smiles": "CCCCCCCCCCCCC/C=C/[C@@H](O)[C@H](CO[C@@H]1O[C@H](COS(=O)(=O)O)[C@H](OS(=O)(=O)O)[C@H](O)[C@H]1O)NC(=O)CCCCCCCCCCCCCCC", "note": "[Example 2, (2S,3R,4E)-3-Hydroxy-2-hexadecanoylamino-1-[4,6-di-O-(sodiumoxysulfonyl)-β-D-galactopyranosyloxy]-4-octadecene]", "values": [{"measurement": "RPA VP % Inhib.", "setting": "[1]", "result": 63, "unit": "%"}, {"measurement": "RPA MPO % Inhib.", "setting": "[2]", "result": 33.5, "unit": "%"}]}, {"smiles": "CCCCCCCC/C=C\\CCCCCCCCCCCCCC(=O)N[C@@H](CO[C@@H]1O[C@H](COS(=O)(=O)O)[C@H](OC(=O)c2ccccc2)[C@H](OC(=O)c2ccccc2)[C@H]1OS(=O)(=O)O)[C@@H](/C=C/CCCCCCCCCCCCC)OC(=O)c1ccccc1", "note": "[Example 7, (2S,3R,4E)-3-Benzoyloxy-1-[3,4-di-O-benzoyl-2,6-di-O-(sodiumoxysulfonyl)-β-D-galactopyranosyloxy]-2-(cis-15-tetracosenoylamino)-4-octadecene]", "values": [{"measurement": "RPA VP % Inhib.", "setting": "[1]", "result": 56, "unit": "%"}, {"measurement": "RPA MPO % Inhib.", "setting": "[2]", "result": 46, "unit": "%"}]}]}
